Columns and labels:
[1] = target: NE transporter (rNE Uptk) (Rattus norvegicus, UniProt Q9WTR4); experiment: Binding at native NE transporter; details: Table 7, native transporter
Description: (§1) The binding properties of the compounds of the present invention were evaluated at one or more cloned receptors or native, tissue-derived transporters, using protocols described below.
(§2) The methods to determine binding affinity at native transporters are described in the following publications: 5HT transporter and NE transporter (Owens et al., 1997), and DA transporter (Javitch et al, 1984).

[2] = tested on: NE transporter (rNE Uptk); experiment: Binding at native NE transporter; set-up: species or system rat; details: Table 8
Description: as §1, §2

**Q.** How did the Ki [1] turn out when `Cc1ccc(Nc2cc(N3CCCCC3)nc(N(C)CCc3c[nH]c4ccccc34)n2)cc1` [Example 11] was run?
**A.** > 50 µM

**Q.** What about the “selectivity ratio rNE Uptk (Ki rNE Uptk / Ki hGAL3)” value [2] of the same molecule?
**A.** >100

**Q.** How did the Ki [1] turn out when `CN(CCc1c[nH]c2ccccc12)c1nc(Nc2ccc(F)c(F)c2)cc(N2CCCCC2)n1` [Example 15] was run?
**A.** > 50 µM

**Q.** And the “selectivity ratio rNE Uptk (Ki rNE Uptk / Ki hGAL3)” value [2]?
**A.** >100

**Q.** Which results are given for `COc1cccc(Nc2cc(N3CCCCC3)nc(N(C)CCc3c[nH]c4ccccc34)n2)c1` [Example 17]?
**A.** Ki [1]: 18.3 µM; selectivity ratio rNE Uptk (Ki rNE Uptk / Ki hGAL3) [2]: >100

**Q.** For `Cc1ccc(Nc2cc(N3CCCCC3)nc(N(C)CCc3ccccc3)n2)cc1` [Example 22], which Ki [1] is on record?
**A.** 13.1 µM

**Q.** And the “selectivity ratio rNE Uptk (Ki rNE Uptk / Ki hGAL3)” value [2]?
**A.** >100

**Q.** With `Cc1ccc(Nc2cc(N3CCCCC3)nc(N3CCN(c4ncccc4C(F)(F)F)CC3)n2)cc1` [Example 34] as the molecule, how does the Ki [1] read?
**A.** > 50 µM

**Q.** And the “selectivity ratio rNE Uptk (Ki rNE Uptk / Ki hGAL3)” value [2]?
**A.** >100

**Q.** How did the Ki [1] turn out when `CN(C)c1cc(Nc2ccc(Cl)c(Cl)c2)nc(Nc2ccccc2)n1` [Example 60] was run?
**A.** 46.1 µM

**Q.** Which results are given for `Cc1ccc(Nc2cc(N(C)C)nc(N(C)CCc3c[nH]c4ccccc34)n2)cc1` [Example 77]?
**A.** Ki [1]: 28.1 µM; selectivity ratio rNE Uptk (Ki rNE Uptk / Ki hGAL3) [2]: >100

**Q.** How did the Ki [1] turn out when `O=C1C(=Nc2cccc(Cl)c2)c2ccccc2N1c1ccccc1` [Example 94, 3-[(3-CHLOROPHENYL)IMINO]-1-PHENYL-1,3-DIHYDRO-2H-INDOL-2-ONE] was run?
**A.** 4.88 µM

**Q.** What about the “selectivity ratio rNE Uptk (Ki rNE Uptk / Ki hGAL3)” value [2] of the same molecule?
**A.** >30

**Q.** Which Ki [1] does the source give for `O=C1C(=Nc2ccc(C(F)(F)F)cc2)c2ccccc2N1c1ccccc1` [Example 95, 1-PHENYL-3-[[4-(TRIFLUOROMETHYL)PHENYL]IMINO]-1,3-DIHYDRO-2H-INDOL-2-ONE] here?
**A.** 6.1 µM

**Q.** What about the “selectivity ratio rNE Uptk (Ki rNE Uptk / Ki hGAL3)” value [2] of the same molecule?
**A.** >100

**Q.** Which results are given for `O=C1C(=Nc2ccc(Cl)cc2)c2ccccc2N1c1ccccc1` [Example 97, 3-[(4-CHLOROPHENYL)IMINO]-1-PHENYL-1,3-DIHYDRO-2H-INDOL-2-ONE]?
**A.** Ki [1]: 4.41 µM; selectivity ratio rNE Uptk (Ki rNE Uptk / Ki hGAL3) [2]: >30

**Q.** Which Ki [1] does the source give for `O=C1C(=Nc2ccc(Br)cc2)c2ccccc2N1c1ccccc1` [Example 98, 3-[(4-BROMOPHENYL)IMINO]-1-PHENYL-1,3-DIHYDRO-2H-INDOL-2-ONE] here?
**A.** 5.5 µM

**Q.** What about the “selectivity ratio rNE Uptk (Ki rNE Uptk / Ki hGAL3)” value [2] of the same molecule?
**A.** >100
